Source: the supplement of paper PMC10307832

Key:
Assay in all cases: relative viability (nuclei count vs DMSO), 5 days (fraction); higher = more cells survive
Dovitinib + Bortezomib = compound: CN1CCN(c2ccc3nc(-c4c(N)c5c(F)cccc5[nH]c4=O)[nH]c3c2)CC1 [Dovitinib] + CC(C)C[C@H](NC(=O)[C@H](Cc1ccccc1)NC(=O)c1cnccn1)B(O)O [Bortezomib] (partner 0.002 µM)
Outline: (§1)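 Five library-drug doses in √10 steps were combined with a fixed anchor-drug dose, or a single drug was given alone, by pin tool to lung cancer cell lines in 1536-well plates the day after seeding. Nuclei were stained and counted after 5 days. Relative viability is the nuclei count in treated wells over that in vehicle wells, taken as the median of duplicate plates.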

Dovitinib + Pictilisib = compound: CN1CCN(c2ccc3nc(-c4c(N)c5c(F)cccc5[nH]c4=O)[nH]c3c2)CC1 [Dovitinib] + CS(=O)(=O)N1CCN(Cc2cc3nc(-c4cccc5[nH]ncc45)nc(N4CCOCC4)c3s2)CC1 [Pictilisib] (partner 1 µM)
Outline: as §1

Dovitinib + Olaparib = compound: CN1CCN(c2ccc3nc(-c4c(N)c5c(F)cccc5[nH]c4=O)[nH]c3c2)CC1 [Dovitinib] + O=C(c1cc(Cc2n[nH]c(=O)c3ccccc23)ccc1F)N1CCN(C(=O)C2CC2)CC1 [Olaparib] (partner 8 µM)
Outline: as §1

Dovitinib + Trametinib = compound: CN1CCN(c2ccc3nc(-c4c(N)c5c(F)cccc5[nH]c4=O)[nH]c3c2)CC1 [Dovitinib] + CC(=O)Nc1cccc(-n2c(=O)n(C3CC3)c(=O)c3c(Nc4ccc(I)cc4F)n(C)c(=O)c(C)c32)c1 [Trametinib] (partner 0.02 µM)
Outline: as §1

Cell Line | relative viability (Dovitinib + Bortezomib; first compound 0.02 µM) | relative viability (Dovitinib + Bortezomib; first compound 0.06325 µM) | relative viability (Dovitinib + Bortezomib; first compound 0.2 µM) | relative viability (Dovitinib + Bortezomib; first compound 0.6325 µM) | relative viability (Dovitinib + Bortezomib; first compound 2 µM) | relative viability (Dovitinib + Pictilisib; first compound 0.02 µM) | relative viability (Dovitinib + Pictilisib; first compound 0.06325 µM) | relative viability (Dovitinib + Pictilisib; first compound 0.2 µM) | relative viability (Dovitinib + Pictilisib; first compound 0.6325 µM) | relative viability (Dovitinib + Pictilisib; first compound 2 µM) | relative viability (Dovitinib + Olaparib; first compound 0.02 µM) | relative viability (Dovitinib + Olaparib; first compound 0.06325 µM) | relative viability (Dovitinib + Olaparib; first compound 0.2 µM) | relative viability (Dovitinib + Olaparib; first compound 0.6325 µM) | relative viability (Dovitinib + Olaparib; first compound 2 µM) | relative viability (Dovitinib + Trametinib; first compound 0.02 µM) | relative viability (Dovitinib + Trametinib; first compound 0.06325 µM) | relative viability (Dovitinib + Trametinib; first compound 0.2 µM) | relative viability (Dovitinib + Trametinib; first compound 0.6325 µM) | relative viability (Dovitinib + Trametinib; first compound 2 µM)
HCC-44 | 0.822 | 0.836 | 0.867 | 0.894 | 0.916 | 0.516 | 0.594 | 0.642 | 0.62 | 0.591 | 0.976 | 0.977 | 0.949 | 0.996 | 0.92 | 1.06 | 1.07 | 1.1 | 1.07 | 1.02
HCC-78 | 0.636 | 0.486 | 0.531 | 0.567 | 0.355 | 0.206 | – | 0.24 | 0.272 | 0.213 | 0.887 | 0.665 | 1.05 | 0.777 | 0.888 | 0.643 | 0.663 | 0.762 | 0.813 | 0.746
HCC-366 | 1.08 | 1.06 | 0.987 | 1.06 | 0.999 | 0.172 | 0.123 | 0.159 | 0.137 | 0.186 | 0.324 | 0.352 | 0.412 | 0.297 | 0.324 | 0.405 | 0.379 | 0.338 | 0.323 | 0.371
HCC-827 | 1.08 | 1.07 | 1.04 | 1.09 | 1.05 | 0.932 | 0.942 | 1.07 | 0.963 | 1.01 | 0.626 | 0.697 | 0.646 | 0.68 | 0.678 | 0.553 | 0.553 | 0.565 | 0.603 | 0.57
HOP-62 | 0.604 | 0.619 | 0.794 | 0.968 | 0.578 | 0.578 | 0.753 | 0.605 | 0.665 | 0.632 | 0.346 | 0.559 | 0.425 | 0.329 | 0.352 | 0.368 | 0.386 | 0.397 | 0.392 | 0.352
IA-LM | 0.787 | 1.01 | 0.666 | 0.837 | 0.772 | 0.412 | 0.333 | 0.481 | 0.279 | 0.337 | 0.723 | 0.812 | 0.916 | 0.795 | 0.845 | – | – | – | – | –
LC-2-ad | 1.08 | 0.983 | 1.02 | 1.06 | 0.789 | 0.535 | 0.463 | 0.446 | 0.439 | 0.36 | 0.691 | 0.666 | 0.734 | 0.775 | 0.741 | 0.92 | 0.903 | 0.873 | 0.927 | 0.815
LK-2 | – | – | – | – | – | 0.525 | 0.546 | 0.475 | 0.516 | 0.57 | 0.738 | 0.818 | 0.676 | 0.935 | 0.739 | 0.758 | 0.751 | 0.784 | 0.809 | 0.585
NCI-H358 | – | – | – | – | – | 0.343 | 0.308 | 0.367 | 0.356 | 0.45 | 0.621 | 0.658 | 0.619 | 0.543 | 0.606 | 0.156 | 0.144 | 0.154 | 0.19 | 0.143
NCI-H522 | – | – | – | – | – | – | – | – | – | – | 0.729 | 0.695 | 0.728 | 0.634 | 0.66 | 0.731 | 0.656 | 0.829 | 0.687 | 0.933
NCI-H1299 | 0.977 | 1.03 | 1.06 | 1.05 | 1.03 | 0.897 | 0.8 | 0.69 | 0.626 | 0.789 | 0.927 | 1.01 | 0.982 | 0.946 | 1.02 | – | – | – | – | –
NCI-H1395 | – | – | – | – | – | 0.563 | 0.518 | 0.651 | 0.783 | 0.612 | 0.533 | 0.431 | 0.478 | 0.505 | 0.479 | 1.04 | 0.984 | 1.07 | 1.02 | 1.06
NCI-H1563 | 0.962 | 0.879 | 0.977 | 0.938 | 0.908 | 0.631 | 0.629 | 0.685 | 0.635 | 0.672 | – | – | – | – | – | – | – | – | – | –
NCI-H1648 | – | – | – | – | – | – | – | – | – | – | 0.506 | 0.815 | 0.932 | 0.667 | 0.77 | 0.581 | 0.413 | 0.471 | 0.477 | 0.527
NCI-H1703 | 0.47 | 0.335 | 0.18 | 0.328 | 0.291 | 0.215 | 0.24 | 0.294 | 0.232 | 0.208 | 0.399 | 0.502 | 0.325 | 0.329 | 0.24 | – | – | – | – | –
NCI-H1793 | – | – | – | – | – | 0.395 | 0.282 | 0.419 | 0.375 | 0.31 | 0.901 | 0.928 | 0.786 | 0.873 | 1.02 | 0.458 | 0.36 | 0.388 | 0.445 | 0.445
NCI-H1944 | – | – | – | – | – | 0.325 | 0.332 | 0.335 | 0.33 | 0.36 | 0.416 | 0.422 | 0.447 | 0.387 | 0.426 | 0.391 | 0.395 | 0.409 | 0.395 | 0.36
NCI-H2170 | – | – | – | – | – | 0.268 | 0.337 | 0.318 | 0.265 | 0.322 | 0.617 | 0.607 | 0.606 | 0.605 | 0.542 | 0.928 | 0.92 | 1.04 | 0.866 | 0.945
NCI-H2342 | – | – | – | – | – | – | – | – | – | – | 0.486 | 0.415 | 0.439 | 0.486 | 0.427 | 1.06 | 0.93 | 0.854 | 0.67 | 0.75
SK-MES-1 | – | – | – | – | – | 0.354 | 0.359 | 0.349 | 0.36 | 0.327 | 0.682 | 0.749 | 0.74 | 0.773 | 0.829 | 0.531 | 0.59 | 0.597 | 0.567 | 0.61
SW 900 | – | – | – | – | – | – | – | – | – | – | 0.796 | 0.809 | 0.847 | 0.808 | 0.851 | 0.811 | 0.763 | 1.06 | 0.771 | 1.08
